These results are taken from PubChem BioAssay AID1918996 (Molecular Pharmacology Branch, DTP, NCI, 2023).

This assay deals with 349418-098-R-PDC complex spheroid growth. Description: Anticancer human tumor 349418-098-R-PDC patient-derived lung adenocarcinoma cell line growth inhibition [AhR]. As to conditions: for viability, T/C: stronger effect = lower value; for IC50: curve of compound. The text has this: Multicellular complex tumor spheroid response to aryl hydrocarbon receptor antagonists in combination with a variety of drugs and investigational agents in selected tumor cell lines
The current study was undertaken to assess response to aryl hydrocarbon receptor antagonists in combination with standard-of-care drugs and investigational agents in solid tumor complex spheroid models. Complex spheroids include a stromal component modeled by human endothelial cells (HUVEC) and fibroblasts modeled by human mesenchymal stem cells (MSCs). The concentration ranges selected for each drug and investigational agent were based upon clinically achievable concentrations if the clinical Cmax of the agent was known.
Compounds. The drugs and investigational agents: BAY 2416964 (NSC825713), GNF351 (NSC835774), CH-223191 (NSC835775), CPI-455 (NSC825282), aza-TdCyd (NSC777586), decitabine (NSC127716), belinostat (NSC758774), entinostat (NSC756642), pevonedistat (NSC761192), tazemetostat (NSC777109), talazoparib (NSC765396), olaparib (NSC753686), selinexor (NSC780203), nedisertib (M3814, NSC802822), bortezomib (NSC756655), venetoclax (NSC766270), doxorubicin (NSC123127), elimusertib (BAY189344, NSC800525), ceralasertib (AZD6738, NSC777638), TAK-243 (NSC785004), alisertib (NSC759677), etoposide (NSC141540), topotecan (NSC609699), eribulin (NSC707389), gemcitabine (NSC613327), carboplatin (NSC241240), cisplatin (NSC119875), and SN-38 (NSC673596) were obtained from the National Cancer Institute (NCI) Developmental Therapeutics Program Chemical Repository (32). The FDA-approved anticancer drug set is available from the Developmental Therapeutics Program at https://dtp.cancer.gov/organization/dscb/obtaining/available plates.htm. […] The stock solutions were prepared in dimethyl sulfoxide (DMSO, Sigma-Aldrich, St. Louis, MO, cat. D2650), except for the platinum compounds which were prepared in saline (Quality Biological, Gaithersburg, MD, cat. 114-055-101), at 800-fold the tested concentration and stored at -70 degrees C prior to their use. All drugs and investigational agents were tested over a range starting from a high concentration at or near the clinical Cmax and decreasing in half-log increments. If the clinical Cmax for an agent had not been determined, the highest concentration tested was 10 microM (Table 1).
Cell Culture. All cells were maintained in an incubator at 37 degrees C and 5% CO2 with 95% humidity. The PDC lines were cultured according to standard operating procedures established by the NCI PDMR (https://pdmr.cancer.gov). Briefly, all PDCs were thawed and cultured in Matrigel-coated flasks prepared with a working solution of 1X Ham's F-12 nutrient mix, without supplementation (Invitrogen, Waltham, MA, cat. 11765054), 100 U/mL penicillin-streptomycin (Invitrogen, cat. 15140122), and 2.5% Matrigel (Corning Inc., Corning, NY, cat. 354248) for the first three passages. All PDCs were cultured in complete DMEM/F-12 media containing advanced DMEM/F-12 (Invitrogen, cat. 12634028), 4.9% defined fetal bovine serum, heat inactivated (HyClone Laboratories Inc., Logan, UT, cat. SH30070.03HI), 389 ng/mL hydrocortisone (Sigma-Aldrich, cat. H4001), 9.7 ng/mL human EGF recombinant protein (Invitrogen, cat. PHG0313), 23.4 microg/mL adenine (Sigma-Aldrich, cat. A2786), 97.3 U/mL penicillin-streptomycin (Invitrogen, cat. 15140122), 1.9 mM L-glutamine (Invitrogen, cat. 25030081), and 9.7 microM Y-27632 dihydrochloride (Tocris Bioscience, Bristol, United Kingdom, cat. 1254). The PDCs were cultured in complete DMEM/F12 media without 10 microM Y-27632 dihydrochloride for at least two passages prior to the screen. The established cell lines NCI-H1341 and […] were cultured in DMEM/F-12, HEPES (Invitrogen, cat. 11330032), 5% defined fetal bovine serum (HyClone Laboratories Inc., cat. SH30070.03), ITS premix universal culture supplement [insulin (5 microg/mL), transferrin (5 microg/mL), and selenious acid (5 ng/mL)] […]

Several values for one entry are separate records, joined by “and”; a condition that tells them apart may be missing. Identical values can stand only once.

By viability, T/C is commonly meant the result in the treated group divided by that in the control group, in per cent. One may read the IC50 as the concentration that inhibits the measured activity by half.
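Further: spheroids exposed to agents for seven days before luminescence viability read.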
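Wherever viability, T/C is given: spheroids also contain HUVEC endothelial cells and human MSC stroma.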

As for `CC(C)CC(NC(=O)C(Cc1ccccc1)NC(=O)c1cnccn1)B(O)O` (stereo not drawn), the IC50 is 0.00102 µM and < 0.000949 µM. Besides, the viability, T/C (compound 0.000949 µM) is 52.6% and 44.3% and 19.1%. Where the note is “compound 0.003 µM”, the viability, T/C is 10.6% and 12.6% and 7.27%. Also, the viability, T/C (compound 0.00949 µM) was 1.45% and 2.68% and 2.76%. Also, where the note is “compound 0.03 µM”, the viability, T/C is 0.95% and 1.46% and 2.12%. Also, the viability, T/C (compound 0.0949 µM) was 0.72% and 2.31% and 2.54%. Moreover, the viability, T/C (compound 0.3 µM) is 0.73% and 2.25% and 1.49%.
In the case of `CC1(C)CCC(CN2CCN(c3ccc(C(=O)NS(=O)(=O)c4ccc(NCC5CCOCC5)c([N+](=O)[O-])c4)c(Oc4cnc5[nH]ccc5c4)c3)CC2)=C(c2ccc(Cl)cc2)C1`, the IC50 was > 10 µM and 7.5 µM and 6.06 µM. In addition, where the note is “compound 0.0316 µM”, the viability, T/C is 97.2% and 117% and 104%. The viability, T/C (compound 0.1 µM) is 110% and 106% and 101%. Under “compound 0.316 µM”, the viability, T/C was 102% and 92.4% and 105%. In addition, under “compound 1 µM”, the viability, T/C is 94.9% and 91.9% and 76.2%. Moreover, the viability, T/C (compound 3.16 µM) is 106% and 100% and 68.8%. In addition, for the setting “compound 10 µM”, the viability, T/C was 96.6% and 33.3% and 37.7%.
In the case of `CC1COCCN1c1cc(-c2ccnn2C)c2ccnc(-c3ccn[nH]3)c2n1` (stereo not drawn), the IC50 was 0.142 µM and 0.0808 µM and 0.0844 µM. Further, under “compound 0.00316 µM”, the viability, T/C is 107% and 93.3% and 81%. Under “compound 0.01 µM”, the viability, T/C is 106% and 116% and 95.6%. Besides, where the note is “compound 0.0316 µM”, the viability, T/C is 96.8% and 76.4% and 101%. For the same compound, the viability, T/C (compound 0.1 µM) was 64% and 45.4% and 42.6%. For the same compound, the viability, T/C (compound 0.316 µM) was 18.7% and 15.7% and 14.7%. For the same compound, for the setting “compound 1 µM”, the viability, T/C is 7.38% and 10.8% and 9.29%.
On to `CCN(c1cc(-c2ccc(CN3CCOCC3)cc2)cc(C(=O)NCc2c(C)cc(C)[nH]c2=O)c1C)C1CCOCC1`, for which the IC50 was more than 3 µM. Under “compound 0.00949 µM”, the viability, T/C was 111% and 107% and 122%. Further, the viability, T/C (compound 0.03 µM) is 109% and 98.9% and 71.2%. Also, the viability, T/C (compound 0.0949 µM) is 105% and 81.2% and 91.1%. For the same compound, where the note is “compound 0.3 µM”, the viability, T/C was 108% and 64.7% and 101%. Also, the viability, T/C (compound 0.949 µM) is 99.1% and 66.3% and 69.3%. In addition, where the note is “compound 3 µM”, the viability, T/C is 94% and 69.9% and 88.5%.
Turning to `CC[C@@]1(O)C(=O)OCc2c1cc1n(c2=O)Cc2cc3c(CN(C)C)c(O)ccc3nc2-1`, the IC50 was 0.0262 µM and 0.0258 µM and 0.0129 µM. Besides, the viability, T/C (compound 0.000316 µM) was 94.4% and 113% and 119%. Moreover, the viability, T/C (compound 0.001 µM) is 97.3% and 89.4% and 89.3%. Further, under “compound 0.00316 µM”, the viability, T/C is 93.6% and 63.5% and 81.3%. Besides, the viability, T/C (compound 0.01 µM) was 84.2% and 87.1% and 64%. In addition, the viability, T/C (compound 0.0316 µM) is 43.4% and 42.2% and 21.3%. For the same compound, the viability, T/C (compound 0.1 µM) was 15.3% and 21.5% and 13.5%.
As for `CCc1c2c(nc3ccc(O)cc13)-c1cc3c(c(=O)n1C2)COC(=O)[C@]3(O)CC`, the IC50 is 0.00158 µM and 0.00339 µM and < 0.000949 µM. Also, the viability, T/C (compound 0.000949 µM) is 55.3% and 67.2% and 40.5%. Besides, the viability, T/C (compound 0.003 µM) was 43.4% and 54.1% and 42.9%. For the same compound, the viability, T/C (compound 0.00949 µM) was 20.6% and 16% and 22.3%. The viability, T/C (compound 0.03 µM) was 7.29% and 12% and 8.26%. Further, the viability, T/C (compound 0.0949 µM) was 3.4% and 8.26% and 6.22%. Besides, under “compound 0.3 µM”, the viability, T/C was 1.91% and 6.96% and 4.74%.
Turning to `COc1cc(C2c3cc4c(cc3C(OC3OC5COC(C)OC5C(O)C3O)C3COC(=O)C23)OCO4)cc(OC)c1O` (stereo not drawn), the IC50 was 0.479 µM and 0.566 µM and 0.244 µM. Besides, the viability, T/C (compound 0.0316 µM) is 99.4% and 112% and 89.4%. Also, under “compound 0.1 µM”, the viability, T/C is 99.9% and 91.1% and 91.7%. Moreover, the viability, T/C (compound 0.316 µM) was 64.6% and 71% and 38.2%. Moreover, the viability, T/C (compound 1 µM) was 22.5% and 31.2% and 21.6%. Besides, the viability, T/C (compound 3.16 µM) is 11.2% and 15.4% and 15.3%. Further, the viability, T/C (compound 10 µM) is 5.4% and 11.7% and 12.5%.
Turning to `COc1cc(Nc2ncc3c(n2)-c2ccc(Cl)cc2C(c2c(F)cccc2OC)=NC3)ccc1C(=O)O`, the IC50 is 0.184 µM and 0.0526 µM and < 0.0316 µM. The viability, T/C (compound 0.0316 µM) is 71.2% and 55.7% and 53.1%. Moreover, the viability, T/C (compound 0.1 µM) is 60.4% and 48.7% and 48.4%. Further, the viability, T/C (compound 0.316 µM) is 35.9% and 24.7% and 26.5%. Further, the viability, T/C (compound 1 µM) is 47% and 31.1% and 35.9%. For the same compound, the viability, T/C (compound 3.16 µM) was 43% and 33.3% and 42.7%. The viability, T/C (compound 10 µM) was 37.2% and 35.5% and 37.6%.
Take `COc1cccc2c1C(=O)c1c(O)c3c(c(O)c1C2=O)CC(O)(C(=O)CO)CC3OC1CC(N)C(O)C(C)O1` (stereo not drawn): the IC50 is less than 0.0316 µM. Also, the viability, T/C (compound 0.0316 µM) is 12.1% and 24.6% and 20.9%. Further, the viability, T/C (compound 0.1 µM) is 7.69% and 19% and 13.3%. For the same compound, the viability, T/C (compound 0.316 µM) was 1.29% and 5.3% and 4.49%. Further, the viability, T/C (compound 1 µM) was 0.27% and 0.62% and 0.79%. In addition, the viability, T/C (compound 3.16 µM) is 2.73% and 2.97% and 3.14%. Further, the viability, T/C (compound 10 µM) was 4.37% and 6.2% and 5.59%.
